# US20200375958A1, “MEMBRANE ACTIVE MOLECULES” (priority 2017, published 2020)
# “And” between values parts separate entries of the source, which are not always exact repeats. Identical values can stand only once. Like-named read-outs stand apart in the source and are kept apart here.
# Experiments:
# CF-1 mice = assay: Anticonvulsant test in mice: metrazol (pentylenetetrazol) tail vein infusion, time to twitch and seizure; format: in vivo, mouse
# Experimental: CF-1 mice were used in this study. Number 20 PE tubing to cannulate a mouse tail vein was used. An infusion pump was used to deliver a solution at a rate of 0.34 mL/min. A hemostat was used to prevent backflow in the PE tubing before the experiment stated. To begin the experiment, the hemostat that was clamped to the PE 20 tubing was removed, the infusion of the solution was started into the tail IV of the mouse, and the timer was started.
# The study reflects the time in seconds from the start of the infusion to the time of twitch and onset of seizure, or 90 seconds, whichever is sooner. When the seizure occurs, the infusion is turned off.
# As a control, metrazol (pentylenetetrazol) in a 0.5% solution (5 mg/mL) in water was prepared. Pentylenetetrazol is used as a control to study seizure phenomena in and to identify compounds that may control seizure susceptibility. Solutions of 8 M butyric acid and 1.5 M 3-hydroxybutyric acid were made.
# The time to twitch and time to seizure of the mouse in seconds is recorded in Tables 3-5, below.
# Tadpoles = assay: Tadpole anesthesia test (movement suppressed on contact with rod); format: in vivo; settings: read-out: Movement suppressed (%)
# Experimental: Tadpoles were placed in a petri dish containing aquarium water. Four to eight tadpoles were placed in each petri dish. The aquarium water contained the specified test compound at the listed concentration. When the tadpoles stopped moving, a plastic rod was used to elicit motion once again by contact between the rod and tadpole. […] From this and the number of subjects, the percent of tadpoles in which movement was suppressed were calculated.
# After 1 to 30 minutes, they were again contacted with a rod to ensure the anesthetic effect had worn off.
# In some examples, subanesthetic concentrations of ethanol were added into the aquarium water. Tadpoles in which movement was prevented with exposure to a test compound and ethanol but not with exposure to a test compound alone were classified as partial anesthetics.
# mouse = tested on: mouse
# Experimental: Butyric acid was dissolved in water to form an 8 M solution. 0.5 mL of the 8 M solution of butyric acid was injected subcutaneously (at the back of the neck) into the mouse.
# 3-hydroxybutyric acid was dissolved in water to form 1 M, 1.5 M, and 2 M solutions. 0.2 mL of a 1.5 M solution of 3-hydroxybutyric acid was injected into a tail vein of a CD-1 mouse. […] This was repeated for at least 2 more times on subsequent days.
# Ethylmalonic acid was dissolved in water to form 2 M, 3 M, and 4 M solutions. 0.2 mL of a 3 M solution of ethylmalonic acid was injected into a tail vein of a mouse. […] This was repeated for at least 2 more times on subsequent days.
# Ethylmalonic acid was dissolved in water to form a 4 M solution. 0.5 mL of the 4 M solution of ethylmalonic acid was injected subcutaneously into the mouse.
# [1] = average of 13 mice, 8 M butyric acid solution plus metrazol
# [2] = individual mice, 8 M butyric acid solution plus metrazol
# [3] = 0.5 mL of 8 M solution in water, subcutaneous (back of the neck)
# [4] = average of 8 mice, 1.5 M 3-hydroxybutyric acid solution plus metrazol
# [5] = individual mice, 1.5 M 3-hydroxybutyric acid solution plus metrazol
# [6] = average of 9 mice, metrazol alone
# [7] = individual mice, metrazol 0.5% solution infused 0.34 mL/min tail vein
smiles,measurement,setting,value
CCCC(=O)O [Butyric acid],"Butyric Acid and Metrazol Time to Seizures (seconds), Avg.",CF-1 mice; [1],51.2 s
same,"Butyric Acid and Metrazol Time to Twitch (seconds), Avg.",CF-1 mice; [1],41.4 s
same,Butyric Acid and Metrazol Time to Seizures,CF-1 mice; [2],51 seconds and 50 seconds (2×) and 47 seconds and 57 seconds (3×) and 42 seconds and 66 seconds and 41 seconds and 44 seconds and 38 seconds and 65 seconds
same,Butyric Acid and Metrazol Time to Twitch,CF-1 mice; [2],38 seconds and 42 seconds and 44 seconds and 50 seconds and 34 seconds (2×) and 53 seconds (2×) and 48 seconds and 36 seconds (2×) and 35 seconds (2×)
same,responders at 62500 µM,Tadpoles,100%
same,responders at 125000 µM,Tadpoles,100%
same,responders at 250000 µM,Tadpoles,100%
same,responders at 500000 µM,Tadpoles,100%
same,Lethality to the mouse,"mouse; 0.2 mL of 8 M solution in water, intravenous, tail vein",lethal
same,Anesthetic effect on the mouse,mouse; [3],became anesthetized or lost consciousness
same,Time until mouse became anesthetized or lost consciousness,mouse; [3],10 to 15 min
same,Time until mouse woke up,mouse; [3],several hours
CC(O)CC(=O)O (centres unmarked) [3-hydroxybutyric acid],"3-Hydroxybutyric Acid and Metrazol Time to Seizures (seconds), Avg.",CF-1 mice; [4],56.9 s
same,"3-Hydroxybutyric Acid and Metrazol Time to Twitch (seconds), Avg.",CF-1 mice; [4],47.5 s
same,3-Hydroxybutyric Acid and Metrazol Time to Seizures,CF-1 mice; [5],61 seconds and 74 seconds and 53 seconds (3×) and 48 seconds (2×) and 65 seconds
same,3-Hydroxybutyric Acid and Metrazol Time to Twitch,CF-1 mice; [5],56 s and 54 s and 49 s and 47 s and 38 s and 50 s and 45 s and 41 s
same,Anesthetic effect on the mouse,"mouse; 0.2 mL of 1.5 M solution in water, tail vein, CD-1 mouse",became unconscious or anesthetic
same,Anesthetic effect on the mouse,"mouse; 1 M solution in water, tail vein, CD-1 mouse",did not have any observable effect
same,Lethality to the mouse,"mouse; 2 M solution in water, tail vein, CD-1 mouse",lethal
"C1CCc2nnnn2CC1 [Metrazol, pentylenetetrazol, reference compound]","Metrazol alone Time to Seizures (seconds), Avg.",CF-1 mice; [6],45.7 s
same,"Metrazol alone Time to Twitch (seconds), Avg.",CF-1 mice; [6],37.3 s
same,Metrazol alone Time to Seizures,CF-1 mice; [7],43 seconds (2×) and 42 seconds (2×) and 59 seconds and 45 seconds and 39 seconds and 49 seconds (2×)
same,Metrazol alone Time to Twitch,CF-1 mice; [7],33 seconds and 36 seconds (2×) and 37 seconds and 52 seconds and 34 seconds (2×) and 31 seconds and 43 seconds
